The values below come from US9394290B2, “Selective CYP11B1 inhibitors for the treatment of cortisol dependent diseases” (UNIVERSITAET DES SAARLANDES CAMPUS SAARBRUECKEN, priority 2010, dated 2016).

Usually inhibition stands for how much of the control response was suppressed.

Bounds are passed on as bounds.

The target of one assay is Human placental CYP19 (Homo sapiens (Human), UniProt P11511). Kind of assay: CYP19 (aromatase) assay, human placental microsomes, 3H2O release. The settings on record: substrate androstenedione, 500 nM, inhibitor concentration 500 nM; for inhibition at 0.5 µM: read-out: inhibition (%) CYP 19. It counts as biochemical. The protocol: The enzyme was obtained from the microsomal fraction of freshly delivered human term placental tissue according to the procedure of Thompson and Siiteri (Thompson, E. A.; Siiteri, P. K. J. Biol. Chem. 1974, 249, 5364).
The isolated microsomes were suspended in a minimum volume of phosphate buffer (0.05 M, pH 7.4, 20% glycerol). Additionally, DTT (dithiothreitol, 10 mM) and EDTA (1 mM) were added to protect the enzyme from degradation. The enzyme preparation was stored at −70° C.
The assay was performed monitoring enzyme activity by measuring the ^3H2O formed from [1β-^3H]androstenedione during aromatization (Hartmann et al. J. Med. Chem. 1986, 29, 1362-1369). […] The test compounds were dissolved in DMSO and diluted with buffer. The final DMSO concentration in the control and inhibitor incubation was 2%. Each tube was pre-incubated for 5 min at 30° C. in a water bath. Microsomal protein was added to start the reaction (0.1 mg). The total volume for each incubation was 0.25 ml. The reaction was terminated by the addition of 200 μl of a cold 1 mM HgCl2 solution. After addition of 200 μl of an aqueous dextran-coated charcoal (DCC) suspension (2%), the vials were shaken for 20 min and centrifuged at 1500×g for 5 min to separate the charcoal-absorbed steroids. The supernatant was assayed for ^3H2O by counting in a scintillation mixture using a β-counter. The calculation of the IC50 values was performed by plotting the percent inhibition vs. the concentration of inhibitor on a semi-log plot.
The above experiment was conducted at least three times and a mean value for the CYP19 inhibition calculated.

In the next assay the target is human CYP11B1 (Homo sapiens (Human), UniProt P15538). Kind of assay: Cellular assay for CYP11B1 inhibition (V79MZh11B1 hamster fibroblasts, substrate 11-deoxycorticosterone). The following applies: for sf: selectivity factor: IC50 (CYP11B2)/IC50 (CYP11B1): ratio IC50 (CYP11B2)/IC50 (CYP11B1); for IC50: read-out: IC50 value CYP11B1, Hamster fibroblasts expressing human CYP11B1, substrate 11-deoxycorticosterone, 100 nM, mean of at least three experiments.

The next assay addresses human CYP11B2 (Homo sapiens (Human), UniProt P19099). The assay is described as follows: Cellular assay for CYP11B2 inhibition (V79MZh11B2 hamster fibroblasts, substrate 11-deoxycorticosterone). The settings on record: for IC50: read-out: IC50 value CYP11B2, Hamster fibroblasts expressing human CYP11B2, 100 nM, mean of at least three experiments, n.i. = no inhibition at an inhibitor concentration of 500 nM.

Another assay addresses human CYP17 (Homo sapiens (Human), UniProt P05093). Kind of assay: CYP17 inhibition assay (membrane fraction of E. coli expressing human CYP17, substrate progesterone). It is filed as biochemical. The settings on record: 25 μM, inhibitor concentration 2.0 μM; for inhibition at 2 µM: read-out: inhibition (%) CYP 17. On the procedure:
Recombinant E. coli pJL17/OR coexpressing human CYP17 and rat NADPH-P450-reductase were grown and stored as described by Ehmer et al. (J. Steroid Biochem. Mol. Biol., 2000, 75, 57-63)
For isolation of membrane fractions, 5 ml of bacterial suspension with an OD578 of 50 were washed using phosphate buffer (0.05 M, pH 7.4, 1 mM MgCl2, 0.1 mM EDTA and 0.1 mM dithiothreitol). Bacteria were harvested by centrifugation (2000×g) and the pellet was resuspended in 10 ml ice-cold TES buffer (0.1 M tris-acetate, pH 7.8, 0.5 mM EDTA, 0.5 M sucrose). Lysozyme was added with 10 ml of ice-cold water resulting in a concentration of 0.2 mg/ml followed by incubation for 30 min on ice with continuous shaking. Spheroplasts were harvested by centrifugation (12000×g, 10 min), and resuspended in 4 ml of ice-cold phosphate buffer (the same as described above plus 0.5 mM phenylmethylsulfonylfluoride (PMSF)).
After that spheroplasts were sonicated on ice (pulse 20 s on, 30 s off, five times), using a sonicator Sonopuls HD60 (Bandelin, Berlin, Germany) at maximum power. Unbroken cells and debris were pelleted at 3000×g for 7 min, and the supernatant was centrifuged at 50000×g for 20 min at 4° C. The membrane pellet was resuspended in 2 ml of phosphate buffer (the same as described above) with 20% glycerol using an ultra-turrax T25 (IKA-Labortechnik, Staufen, Germany). Protein concentration was determined by the method of Lowry.
The assay was performed as follows: a solution of 6.25 nmol progesterone (in 5 μl methanol) in 140 μl phosphate buffer (0.05 M, pH 7.4, 1 mM MgCl2, 0.1 mM EDTA and 0.1 mM dithiothreitol), 50 μl NADPH generating system (in phosphate buffer with 10 mM NADP, 100 mM glucose-6-phosphate and 2.5 units of glucose-6-phosphate-dehydrogenase) and inhibitor (in 5 μl DMSO) was pre-incubated at 37° C. for 5 min. Control cups were supplemented with 5 μl DMSO without inhibitor. The reaction was started by adding 50 μl of a 1:5 diluted membrane suspension in phosphate buffer (0.8-1.0 mg protein per ml). The maximum DMSO concentration in each sample was 2%. After mixing, incubation was performed for 30 min at 37° C. Subsequently the reaction was stopped with 50 μl 1 N HCl.
Extraction of the steroids was performed by addition of 1.0 ml ethyl acetate and vigorous shaking for 1 min. After a centrifugation step (5 min, 2500×g) the organic phase (0.9 ml) was transferred into a fresh cup containing 0.25 ml of incubation buffer and 50 μl 1 N HCl and mixed again. After centrifugation, 0.8 ml ethyl acetate solution was evaporated to dryness in a fresh cup. After that the steroids were redissolved in solvent for HPLC analysis (Hutschenreuter et. al. J. Enz. Inhib. Med. Chem. 2004, 19, 17-32).
The above experiment was conducted at least three times and a mean value for the CYP17 inhibition calculated.

Chain of human CYP11B2 (P19099 25-503): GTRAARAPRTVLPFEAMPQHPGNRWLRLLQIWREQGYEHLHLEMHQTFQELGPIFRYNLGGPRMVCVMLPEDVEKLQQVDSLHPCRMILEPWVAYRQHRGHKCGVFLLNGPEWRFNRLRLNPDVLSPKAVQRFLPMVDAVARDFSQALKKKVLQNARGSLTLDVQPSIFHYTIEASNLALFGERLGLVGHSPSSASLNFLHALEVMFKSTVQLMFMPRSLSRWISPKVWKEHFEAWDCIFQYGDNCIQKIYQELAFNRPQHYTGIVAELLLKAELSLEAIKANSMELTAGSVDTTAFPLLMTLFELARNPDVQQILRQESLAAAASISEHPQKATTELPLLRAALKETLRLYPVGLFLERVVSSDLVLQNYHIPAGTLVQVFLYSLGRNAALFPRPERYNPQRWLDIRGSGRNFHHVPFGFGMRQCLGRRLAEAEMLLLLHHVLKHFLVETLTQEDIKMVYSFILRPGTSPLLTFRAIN
Chain of human CYP17 (P05093 whole entry): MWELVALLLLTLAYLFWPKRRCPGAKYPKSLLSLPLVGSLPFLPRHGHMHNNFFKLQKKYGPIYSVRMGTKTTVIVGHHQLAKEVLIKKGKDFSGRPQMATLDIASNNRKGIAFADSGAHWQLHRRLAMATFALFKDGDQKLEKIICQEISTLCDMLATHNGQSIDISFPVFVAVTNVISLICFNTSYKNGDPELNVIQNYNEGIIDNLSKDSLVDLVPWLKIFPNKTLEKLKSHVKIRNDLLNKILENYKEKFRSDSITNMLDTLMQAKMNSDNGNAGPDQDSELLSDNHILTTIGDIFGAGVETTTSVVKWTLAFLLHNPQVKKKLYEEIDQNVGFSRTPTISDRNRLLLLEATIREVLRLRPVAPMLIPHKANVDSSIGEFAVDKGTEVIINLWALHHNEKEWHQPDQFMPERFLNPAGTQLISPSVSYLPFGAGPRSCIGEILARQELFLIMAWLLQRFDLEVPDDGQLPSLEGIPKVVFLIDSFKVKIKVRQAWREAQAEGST
Chain of human CYP11B1 (P15538 25-503): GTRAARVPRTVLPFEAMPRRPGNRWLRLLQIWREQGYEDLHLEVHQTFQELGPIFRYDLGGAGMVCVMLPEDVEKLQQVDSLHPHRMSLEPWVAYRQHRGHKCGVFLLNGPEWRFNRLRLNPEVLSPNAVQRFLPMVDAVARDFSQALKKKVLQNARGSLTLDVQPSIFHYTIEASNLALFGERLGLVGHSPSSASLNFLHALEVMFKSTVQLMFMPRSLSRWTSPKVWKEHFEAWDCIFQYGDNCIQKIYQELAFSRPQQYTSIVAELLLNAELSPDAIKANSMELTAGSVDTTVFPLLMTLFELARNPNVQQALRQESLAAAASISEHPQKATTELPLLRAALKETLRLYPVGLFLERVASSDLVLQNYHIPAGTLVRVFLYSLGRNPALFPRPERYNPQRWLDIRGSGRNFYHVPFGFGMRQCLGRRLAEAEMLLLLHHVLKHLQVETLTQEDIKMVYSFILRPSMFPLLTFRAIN
Chain of Human placental CYP19 (P11511 whole entry): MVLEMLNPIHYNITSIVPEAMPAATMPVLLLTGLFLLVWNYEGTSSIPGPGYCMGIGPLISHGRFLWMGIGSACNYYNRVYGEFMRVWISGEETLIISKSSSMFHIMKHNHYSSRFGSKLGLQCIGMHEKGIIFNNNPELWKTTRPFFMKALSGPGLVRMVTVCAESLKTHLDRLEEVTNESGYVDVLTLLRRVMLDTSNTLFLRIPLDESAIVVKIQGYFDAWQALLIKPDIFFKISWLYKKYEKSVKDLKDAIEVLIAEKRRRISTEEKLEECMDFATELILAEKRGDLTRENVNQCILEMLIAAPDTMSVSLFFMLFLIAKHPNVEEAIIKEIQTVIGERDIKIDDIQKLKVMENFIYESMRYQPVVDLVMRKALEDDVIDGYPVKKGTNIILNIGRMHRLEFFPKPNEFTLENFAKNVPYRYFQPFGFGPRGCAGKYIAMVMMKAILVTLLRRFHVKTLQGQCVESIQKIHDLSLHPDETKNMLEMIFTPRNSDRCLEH

For `Brc1ncccc1Cn1ccnc1` [Compound 5, 2-Bromo-3-imidazol-1-ylmethyl-pyridine], the inhibition at 0.5 µM at Human placental CYP19 is 2%. On human CYP11B1, the “sf: selectivity factor: IC50 (CYP11B2)/IC50 (CYP11B1)” value (“sf: selectivity factor: IC50” below) is reported as 15 and the IC50 was found to be 61 nM. Also, the IC50 on human CYP11B2 was found to be 911 nM. In addition, the inhibition at 2 µM at human CYP17 was found to be 3%.

For the compound `Fc1ccccc1-c1ccc(Cn2ccnc2)cn1` [Compound 7, 2-(2-Fluoro-phenyl)-5-imidazol-1-ylmethyl-pyridine], the inhibition at 0.5 µM at Human placental CYP19 amounted to 0%. At human CYP11B1, the “sf: selectivity factor: IC50” value is given as 24 and the IC50 is 72 nM. Further, the IC50 at human CYP11B2 was 1740 nM. Besides, on human CYP17, the inhibition at 2 µM amounted to 3%.

In the case of `Oc1ccc(-c2ccc(Cn3ccnc3)cn2)cc1F` [Compound 11, 2-Fluoro-4-(5-imidazol-1-ylmethyl-pyridin-2-yl)-phenol], the inhibition at 0.5 µM on Human placental CYP19 is 0%. At human CYP11B1, the “sf: selectivity factor: IC50” value is 14 and the IC50 was found to be 17 nM. For the same compound, the IC50 at human CYP11B2 was 237 nM. The inhibition at 2 µM at human CYP17 was 2.6%.

In the case of `COc1ccccc1-c1ccc(Cn2ccnc2)cn1` [Compound 12, 5-Imidazol-1-ylmethyl-2-(2-methoxy-phenyl)pyridine], the inhibition at 0.5 µM on Human placental CYP19 turned out to be 4%. Moreover, on human CYP11B1, the “sf: selectivity factor: IC50” value was found to be 26 and the IC50 came out at 167 nM. In addition, the IC50 at human CYP11B2 is 4390 nM. The inhibition at 2 µM at human CYP17 is 5%.

Turning to `Nc1ccccc1-c1ccc(Cn2ccnc2)cn1` [Compound 15, 2-(5-Imidazol-1-ylmethyl-pyridin-2-yl)-phenylamine], the inhibition at 0.5 µM on Human placental CYP19 amounted to 0%. At human CYP11B1, the “sf: selectivity factor: IC50” value amounted to 21. Besides, the IC50 stood at 101 nM at human CYP11B1 and 2110 nM at human CYP11B2. For the same compound, the inhibition at 2 µM at human CYP17 is 6%.

`Nc1cccc(-c2ccc(Cn3ccnc3)cn2)c1` [Compound 16, 3-(5-Imidazol-1-ylmethyl-pyridin-2-yl)-phenylamine]: the inhibition at 0.5 µM on Human placental CYP19 was determined as 2%. Further, at human CYP11B1, the “sf: selectivity factor: IC50” value amounted to 31. For the same compound, the figures for the IC50 on human CYP11B1 and on human CYP11B2 were 110 nM and 3410 nM, respectively. For the same compound, the inhibition at 2 µM at human CYP17 came out at 3%.

`Nc1ccc(-c2ccc(Cn3ccnc3)cn2)cc1` [Compound 17, 4-(5-Imidazol-1-ylmethyl-pyridin-2-yl)-phenylamine]: at Human placental CYP19, the inhibition at 0.5 µM was 1%. In addition, the “sf: selectivity factor: IC50” value at human CYP11B1 is 5. For the same compound, the IC50 came to 106 nM on human CYP11B1 and 528 nM at human CYP11B2. The inhibition at 2 µM at human CYP17 was 4%.

In the case of `Cc1ccc(-c2ccc(Cn3ccnc3)cn2)cc1N` [Compound 18, 5-(5-Imidazol-1-ylmethyl-pyridin-2-yl)-2-methyl-phenylamine], the inhibition at 0.5 µM on Human placental CYP19 came to 0%. Also, the figures for the IC50 on human CYP11B1 and on human CYP11B2 were 542 nM and over 1000 nM, respectively. Besides, at human CYP17, the inhibition at 2 µM was 3%.

In the case of `c1ccc(N(c2ccccc2)c2ccc(-c3ccc(Cn4ccnc4)cn3)cc2)cc1` [Compound 22, [4-(5-Imidazol-1-ylmethyl-pyridin-2-yl)-phenyl]-diphenyl-amine], at Human placental CYP19, the inhibition at 0.5 µM is 1%. Also, the IC50 at human CYP11B1 worked out at 611 nM. Further, the “IC50 value CYP11B2” value against human CYP11B2 (Hamster fibroblasts expressing human CYP11B2, 100 nM, mean of at least three experiments, n.i. = no inhibition at an inhibitor concentration of 500 nM) is reported as “n.i.^d”. For the same compound, the inhibition at 2 µM on human CYP17 came to 2%.

Turning to `c1ccc2c(-c3ccc(Cn4ccnc4)cn3)cccc2c1` [Compound 23, 5-Imidazol-1-ylmethyl-2-naphthalen-1-yl-pyridine], at Human placental CYP19, the inhibition at 0.5 µM worked out at 5%. In addition, on human CYP11B1, the “sf: selectivity factor: IC50” value amounted to 49 and the IC50 was 42 nM. In addition, at human CYP11B2, the IC50 was determined as 2080 nM. Moreover, the inhibition at 2 µM on human CYP17 turned out to be 8%.

Turning to `c1ccc(-c2cc(Cn3ccnc3)cnc2-c2ccccc2)cc1` [Compound 25, 5-Imidazol-1-ylmethyl-2,3-diphenyl-pyridine], the inhibition at 0.5 µM on Human placental CYP19 turned out to be 0%. Besides, at human CYP11B1, the “sf: selectivity factor: IC50” value turned out to be 2.4 and the IC50 was 362 nM. Moreover, on human CYP11B2, the IC50 stood at 851 nM. In addition, on human CYP17, the inhibition at 2 µM was 3%.

For the compound `c1csc(-c2ccc(Cn3ccnc3)cn2)c1` [Compound 31, 5-Imidazol-1-ylmethyl-2-thiophen-2-yl-pyridine], the inhibition at 0.5 µM at Human placental CYP19 worked out at 3%. Moreover, on human CYP11B1, the “sf: selectivity factor: IC50” value was found to be 17 and the IC50 was found to be 75 nM. Further, the IC50 at human CYP11B2 worked out at 1240 nM. For the same compound, the inhibition at 2 µM at human CYP17 stood at 8%.

Regarding `c1cn(Cc2ccc(-c3ccsc3)nc2)cn1` [Compound 32, 5-Imidazol-1-ylmethyl-2-thiophen-3-yl-pyridine], the inhibition at 0.5 µM on Human placental CYP19 was 0%. On human CYP11B1, the “sf: selectivity factor: IC50” value amounted to 26 and the IC50 came out at 126 nM. Further, the IC50 at human CYP11B2 amounted to 3260 nM. At human CYP17, the inhibition at 2 µM was 3%.

For `O=Cc1ccc(-c2ccc(Cn3ccnc3)cn2)s1` [Compound 34, 5-(5-Imidazol-1-ylmethyl-pyridin-2-yl)-thiophene-2-carbaldehyde], the inhibition at 0.5 µM at Human placental CYP19 stood at 0%. The “sf: selectivity factor: IC50” value on human CYP11B1 is reported as 16. In addition, the IC50 came to 62 nM on human CYP11B1 and 968 nM on human CYP11B2. Also, on human CYP17, the inhibition at 2 µM was 5%.

For the compound `c1ccc(-c2cc(Cn3ccnc3)cnc2-c2ccccc2)cc1` [Compound 35, 5-Imidazol-1-ylmethyl-2,3-diphenyl-pyridine], the “inhibition (%) CYP 19” value on Human placental CYP19 was 30%. Further, the “sf: selectivity factor: IC50” value at human CYP11B1 turned out to be 6. Moreover, the values for the IC50 on human CYP11B1 and on human CYP11B2 were 73 nM and 416 nM, respectively. Moreover, on human CYP17, the “inhibition (%) CYP 17” value stood at 5%.

As to `c1csc(-c2ncccc2Cn2ccnc2)c1` [Compound 36, 3-Imidazol-1-ylmethyl-2-thiophen-2-yl-pyridine], the inhibition at 0.5 µM at Human placental CYP19 was 19%. At human CYP11B1, the “sf: selectivity factor: IC50” value was determined as 16 and the IC50 was found to be 16 nM. Moreover, the IC50 on human CYP11B2 worked out at 251 nM. Further, at human CYP17, the inhibition at 2 µM was determined as 0%.
